According to PubChem BioAssay (NCI):
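Grown in 96-well plates, cells were treated for 48 hours with each compound at five concentrations. Insufficient inhibition: endpoint recorded as highest concentration tested. GI50 is the concentration that inhibits growth by half. TGI is the concentration that stops growth completely.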

Experiments:
Experiment in all cases: DTP human tumour cell line panel, 48 h
786-0 renal = system: 786-0 renal
CAKI-1 renal = system: CAKI-1 renal
CCRF-CEM leukemia = system: CCRF-CEM leukemia
HOP-62 NSCLC = system: HOP-62 NSCLC
KM12 colon = system: KM12 colon
NCI-H522 lung = system: NCI-H522 lung
RPMI-8226 leukemia = system: RPMI-8226 leukemia
RXF 393 renal = system: RXF 393 renal
SK-MEL-28 melanoma = system: SK-MEL-28 melanoma
MALME-3M melanoma = system: MALME-3M melanoma

| Structure (SMILES) | TGI (786-0 renal) [µM] | TGI (CAKI-1 renal) [µM] | TGI (CCRF-CEM leukemia) [µM] | TGI (HOP-62 NSCLC) [µM] | TGI (KM12 colon) [µM] | TGI (NCI-H522 lung) [µM] | TGI (RPMI-8226 leukemia) [µM] | TGI (RXF 393 renal) [µM] | TGI (SK-MEL-28 melanoma) [µM] | TGI (MALME-3M melanoma) [µM] | GI50 (786-0 renal) [µM] | GI50 (CAKI-1 renal) [µM] | GI50 (HOP-62 NSCLC) [µM] | GI50 (NCI-H522 lung) [µM] | GI50 (RPMI-8226 leukemia) [µM] | GI50 (RXF 393 renal) [µM] | GI50 (SK-MEL-28 melanoma) [µM] | GI50 (CCRF-CEM leukemia) [µM] | GI50 (KM12 colon) [µM] | GI50 (MALME-3M melanoma) [µM] |
| --- | --- | --- | --- | --- | --- | --- | --- | --- | --- | --- | --- | --- | --- | --- | --- | --- | --- | --- | --- | --- |
| COc1ccc(OC)c(/C=C/c2cnnc3ccccc23)c1 | > 10 | > 10 | > 10 | > 10 | > 10 | > 10 | > 10 | > 10 | > 10 |  |  |  |  |  |  |  |  |  |  |  |
| COC(=O)c1cc(O)ccc1NC(=O)c1ccc(O)cc1 | > 100 | > 100 | > 100 | > 100 | > 100 | > 100 | > 100 |  | > 100 | > 100 |  |  |  |  |  |  |  |  |  |  |
| Cc1ccccc1C(C#N)/C(=N/NC(=O)C(=O)NN)C(=O)Nc1cccc(C(F)(F)F)c1 (stereo not drawn) | > 100 | > 100 | > 100 | > 100 | > 100 | > 100 | > 100 |  | > 100 | > 100 |  |  |  |  |  |  |  |  |  |  |
| CC(=O)O[C@@H]1CC(=O)O[C@@H]2C[C@@H](CC/C(Cl)=C/C/C=C\1C)O[C@@H]2CO | > 25 | > 25 |  | > 25 | > 6.4 | > 25 | > 25 | > 25 | > 25 |  | > 25 | > 25 | > 25 | > 25 | > 25 | > 25 | > 25 |  |  |  |
| COc1ccc(OC)c2c3c(ncc12)-c1cc2c(cc1C3)OCO2 | > 100 | > 100 | > 100 | 0.0603 | > 100 | > 100 | > 100 | > 100 | > 100 |  | 22.5 | > 100 |  | 52.3 | > 100 | > 100 | > 100 | > 100 | > 100 |  |
| CC1=C(C(=O)Nc2ccc(Cl)c(Cl)c2)C(c2cccc(O)c2)NC(=S)N1 (stereo not drawn) | 20 | 38.5 |  | 31.2 | 16.6 | 25.2 | 38.1 | 29.3 |  |  | 9.47 | 14.4 | 17.3 | 12 | 10.1 | 12.8 |  |  | 7.77 |  |
| CCOCC[P+](c1ccccc1)(c1ccccc1)c1ccccc1 | > 100 | > 100 | > 100 | > 100 | > 100 | 50.9 | 40.4 |  | 70.6 | 61.4 | 31.3 | 44.1 | 29.7 | 11.9 | 4.55 |  | 16 | 23 | 11.2 | 10.3 |
| Cn1c2ccccc2c(=S)c2cc(NC(=O)CCCCC(=O)Nc3ccc4c(c3)c(=S)c3ccccc3n4C)ccc21 | > 100 | > 100 | > 100 | > 100 | > 100 | > 100 | > 100 | > 100 | > 100 |  |  |  |  |  |  |  |  |  |  |  |
| O=C(O)c1cn(C2CC2)c2cc(N3CCN(C(=O)Nc4nc(-c5ccc(Cl)cc5)cs4)CC3)c(F)cc2c1=O | 22.5 | > 100 | > 100 | 96.1 | > 100 | 9.14 |  | 54.6 | > 100 | 5.83 | 2.32 | 3.81 | 3 | 2.55 |  | 3.37 | 0.701 | 1.22 | 2.15 | 1.47 |
| O=C(Nc1cc(Cl)cc(Cl)c1)c1ccc(NC2=C(Cl)C(=O)N(Cc3ccccc3)C2=O)cc1 | 8.74 | 2.98 | 12.1 | 17.8 | 26.2 | 25.7 | 4.2 |  | > 100 | 30.4 | 2.87 | 0.799 | 4.21 | 7.78 | 1.74 |  | 41.9 | 3.17 | 6.43 | 14.6 |
| C/C(CC(=O)Nc1ccc([N+](=O)[O-])cc1)=N/N=C(N)N | > 100 |  | > 100 | > 100 | > 100 | > 100 |  | > 100 | > 100 | > 100 |  |  |  |  |  |  |  |  |  |  |
| O=C1CSc2ccncc2N1 | > 100 | > 100 | > 100 | > 100 |  |  |  | > 100 | > 100 | > 100 |  |  |  |  |  |  |  |  |  |  |
| O=[N+]([O-])c1ccc(C2N3CCCCC3[C@@H]3c4[nH]c5ccccc5c4CCN23)cc1 (stereo partly drawn) | > 100 | > 100 | 64.4 | 47.9 |  |  | > 100 | 18.9 | 42 |  |  |  |  |  |  |  |  |  |  |  |
| O=C(CN/C=C\C(=O)c1cc(Cl)ccc1Cl)c1ccccc1 | > 100 | 66.2 | 36.7 | > 100 | 55.3 | 34.8 |  | 67.5 | > 100 | 78.3 | 36.1 | 26.6 | 34.5 | 17.4 |  | 22.9 | 41.9 | 18.5 | 23.8 | 25.1 |
| CCC1=C[C@H]2CN(CCc3c([nH]c4ccccc34)[C@@](C(=O)OC)(c3cc4c(cc3OC)N(C)[C@H]3[C@@](O)(C(=O)OC)[C@H](OC(C)=O)[C@]5(CC)[C@@H]6C[C@@H]6CN6CC[C@]43[C@@H]65)C2)C1 | 3.07 |  | 4.48 | 4.43 | 3.8 | 0.302 |  |  | 6.48 | 5.82 | 0.0315 |  | 0.0249 | 0.011 |  |  | 2.91 | 0.0495 | 0.0313 | 0.249 |
| O=C(/C=C/c1ccc2c(c1)OCO2)c1ccccc(=O)c1O | > 100 | 24.1 | 3.93 | > 100 | 26.1 | 63.4 | > 100 |  | 90.4 | 60 |  |  |  |  |  |  |  |  |  |  |
| COc1ccc2oc(-c3ccc(Cl)cc3)c(N3CCN(C)CC3)c2c1 | 3.42 | 3.27 | 4.06 | 3.86 | 3.27 | 3.91 | 4.72 |  | 3.08 |  | 1.75 | 1.57 | 1.82 | 1.9 | 1.25 |  | 1.62 | 1.71 | 1.64 |  |
| Cc1cc2c(=O)cc(-c3ccc(C(=O)O)cc3)oc2c(C(=O)O)c1C | > 100 | > 100 | > 100 | > 100 | > 100 | > 100 | > 100 |  | > 100 | > 100 |  |  |  |  |  |  |  |  |  |  |
| O=C(Cc1nc2ccccc2s1)NC12CC3CC(CC(C3)C1)C2 | > 100 | > 100 | > 100 | > 100 | > 100 | > 100 |  |  | > 100 | > 100 |  |  |  |  |  |  |  |  |  |  |
| C=C1CCC2C(C)(CO)C(O)CCC2(C)C1CC(O)C1=CCOC1=O (stereo not drawn) | 71.6 | > 100 | 84.3 | > 100 | > 100 | 20.3 | > 100 |  | > 100 | > 100 |  |  |  |  |  |  |  |  |  |  |
| Cc1ccc(C2CC(c3cccc(Nc4ccncc4)c3)=NN2c2ccc(Cl)cc2)cc1 (stereo not drawn) | 3.16 | 2.97 | 7.66 |  | 2.99 | 3.67 |  | 2.97 | 3.32 | 3.05 | 1.71 | 1.51 |  | 1.78 |  | 1.59 | 1.83 | 2.64 | 1.62 | 1.6 |
| COc1ccc(C2SC(C)C(=O)N2NC(=O)C(O)c2ccccc2)cc1 (stereo not drawn) | > 100 | > 100 | > 100 | > 100 | > 100 | > 100 | > 100 | > 100 | > 100 |  | > 100 | > 100 | > 100 | > 100 | > 100 | > 100 | > 100 | > 100 | > 100 |  |
| C#CCOc1c(OC)cc(C(=O)/C(C)=C/c2cccc(N=[N+]=[N-])c2)cc1OC | > 100 | > 100 | > 100 | > 100 | > 100 | 0.8 | > 100 | > 100 | > 100 |  | 0.18 | 0.247 | 0.214 | 0.155 | 0.255 | 0.25 | 29 | 0.117 | 0.0845 |  |
| Clc1ccc(CCn2cncn2)c(Cl)c1 | > 100 | > 100 | > 100 | > 100 | > 100 | > 100 |  |  | > 100 |  |  |  |  |  |  |  |  |  |  |  |
| Cn1cc(-c2nc(-c3cn(C)c4ncccc34)cs2)c2cc(F)ccc21 | 12.8 | 11.9 | > 100 | 84.7 | 14.6 | 7.57 | > 100 | 4.77 | > 100 |  | 2.57 | 0.776 | 2.67 | 0.367 | 3.65 | 1.51 | 2.42 | 2.41 | 0.61 |  |
